According to patent publication US20040162263A1, “Pharmaceutical formulations targeting specific regions of the gastrointesinal tract” (priority 2002, published 2004):

Experiments:
in vivo = conditions: dog
Protocol: Pentostatin was administered to IVAP beagle dogs (n=3) at 0.2 mg/kg via intravenous, oral and through previously implanted intestinal ports (jejunum, ileum and colon). Extravascular administration of pentostatin was done in saline water for infusion or in a pH=7 phosphate buffer solution to control the intestinal pH. Blood samples were taken systemic and through a port in the portal vein, plasma separated and kept frozen at −20° C. until analysis.
Six adult male beagle dogs (obtained from Summit Ridge Farms, Susquehanna, Pa.; between the ages of 1 and 5 years and weighed between 9 and 16 kg) were prepared with indwelling catheters in the Upper and Lower Small Intestines (USI and LSI), Colon (IC) and Portal Vein (PV) and were dosed with pentostatin at 0.2 mg/kg. The drug formulation was delivered either orally, intraveneously or, in most cases, through the indwelling ports and blood samples were drawn to determine the pharmacokinetics of each permutation. Systemic blood samples were collected from acutely placed IV catheters in the brachial vein, while PV samples were collected through the indwelling port and catheter. All blood samples were spun down, the plasma decanted, frozen and stored at −70 deg Celsius before subject to analysis.
The IVAP dog is prepared with indwelling catheters attached to subcutaneous ports (Titanium Vascular Access Portsg from Access Technologies in Skokie, Ill.) for delivery of drug formulations directly to various parts of the Gastrointestinal Tract. […] In addition, collecting blood samples directly from the portal vein during parenteral as well as oral and intestinal delivery can be combined with direct portal delivery studies to tweeze apart the first pass effects of both liver and intestinal cell enzymatic degradation effects on the drug being tested. Next, delivery of various formulations under different conditions can help in the development of effective oral delivery systems. Finally, delivery of absorption enhancers at various intervals, prior to the delivery of the drug, can be used to determine the recovery time of intestinal wall integrity following dosing with a particular formulation.
IVAP dogs are fitted with three intestinal catheters, in addition to a portal vein catheter. Following induction of general anesthesia, the animal is placed in a supine position, scrubbed and prepped with betadine solution and draped under sterile conditions. A vertical midline incision is made through the skin and the abdominal cavity is entered. A 5F Heparin Coated CBAS® tubing, is inserted into the portal vein and secured with a purse string of 7-0 prolene suture. A small square of Surgicel® is placed over the insertion site and the fascia is closed over it to prevent leakage or dislodging of the tubing. The Upper Small Intestine (USI) port tubing is inserted 10 cm distal to the ligament of Treitz. The small bowel is then measured from the pyloric sphincter to the ileocecal valve and the Lower Small Intestine (LSI) port tubing is inserted one third of the way back from the ileocecal valve. The colon tubing is inserted 10 cm distal to the ileocecal valve (Colon). 7F Sylastic® tubing is used for each intestinal catheter. […] The tubings are secured with a silk “purse-string” suture and the modified Witzel Tunnel technique. After placement of the tubes, the bowel is secured to the abdominal wall and the proximal ends of the tubings are tunneled out of the abdominal cavity and into a subcutaneous pocket on the caudal aspect of the right chest, along with the PV catheter. The abdominal incision is closed in two layers. The Linea Alba is approximated with 0 Vicryl and the skin is closed with 2-0 Vicryl.
In case of IV administration, the drug is dissolved in normal sterile saline to a concentration of 1 mg/ml and is passed through a […] sterilizing filter prior to administration to the brachial vein.

[1] = Physico-chemical properties of pentostatin (solubility, stability); format: physicochemical
[2] = tested on: fetal hemoglobin levels (Hb F); conditions: orally 8 mg/kg, repeatedly phlebotomized baboon; cited from earlier work
L1210 leukemic mice = conditions: cited from earlier work

SMILES: OC[C@H]1O[C@@H](n2cnc3c2NC=NC[C@H]3O)C[C@@H]1O [pentostatin, 2′-deoxycoformycin]
- AUC2/AUC1 (portal vein) (in vivo; po): 1.50
- Relative bioavailability in reference to oral (in vivo; male, beagle): 620%
- Ratio Treat2/Treat1 of systemic bioavailability (in vivo; male, beagle, po): 0.51
- bioavailability % change, AVERAGE (in vivo; male, beagle, po): −26%
- decrease in the systemic pentostatin bioavailability (in vivo; male, beagle, po): 50%
- Mean systemic AUC0-inf (in vivo; male, beagle, po, 0.2 mg/kg): 10,425 ± 6,652 (64) ng × min/ml
- bioavailability (in vivo; male, beagle, po, 0.2 mg/kg, Individual bioavailability % change): 5%
- AUC(0-inf) (in vivo; male, beagle, po, 0.2 mg/kg, Mean systemic AUC0-inf): 340 ng·h/mL
- bioavailability (in vivo; male, beagle, po, 0.2 mg/kg, Relative bioavailability calculated in portal vein): 100%
- bioavailability (in vivo; male, beagle, po, 0.2 mg/kg, Relative bioavailability in reference to oral): 100%
- bioavailability (in vivo; male, beagle, po, 0.2 mg/kg, pH 7, systemic bioavailability (F), mean): 14.3%
- bioavailability (in vivo; male, beagle, po, 0.2 mg/kg, systemic bioavailability (F), mean): 28%
- solubility in ethanol and methanol [1]: slightly soluble
- stability in aqueous solution ([1]; 1 mg/ml): most stable at pH 7 or above and degrade quickly at pHs lower than 4
- solid stability at high temperature and humidity ([1]; 37° C., 75% RH): loses the potency
- solubility in water ([1]; at various pHs): freely soluble
- hygroscopicity ([1]; crystalline form): not hygroscopic
- solid stable ([1]; up to temperatures of 45° C.): at least 12 months

SMILES: Nc1ncn([C@@H]2O[C@H](CO)[C@@H](O)[C@H]2O)c(=O)n1 [5-azacytidine]
- elevation in the fetal hemoglobin levels (Hb F) [2]: no elevation
- activity parenteral versus oral (L1210 leukemic mice): more active when administered parenterally than orally
